Experimental data taken from the NIST ThermoML archive (doi:10.1016/j.fluid.2007.01.021).
Numbers after ± are expanded uncertainties.

Legend:
[1] = 293.15 K; 101.33 kPa; Liquid
[2] = refractive index (Na D-line) (dimensionless); settings: 293.15 K; 101.33 kPa; Liquid; Standard Abbe refractometry

mass density [1] | refractive index [2] | SMILES
962.3 ± 0.6 kg/m3 | 1.4639 ± 0.0006 | OC1CCCCC1 [cyclohexanol]
968.2 ± 0.5 kg/m3 | 1.4422 ± 0.0006 | CC(=O)OC1CCCCC1 [cyclohexyl ethanoate]
875 ± 0.8 kg/m3 | 1.4026 ± 0.0006 | CCCCCOC(C)=O [pentyl ethanoate]
803.5 ± 1 kg/m3 | 1.385 ± 0.0006 | CCCO [propan-1-ol]
998.4 ± 0.5 kg/m3 | 1.3326 ± 0.0006 | O [water]
